Data taken from patent US20070014723A1, “Methods and compositions for 10Beryllium complex probes” (priority 2005, published 2007).
Marks after values point to notes of the source that are not given here.

What was measured:
Type in all cases: cell-based, human
[1] = system: BAL macrophages from CBD subjects; assay: Apoptosis (nuclear fragmentation) of CBD BAL macrophages; settings: 100 μM BeSO4, 50 μg Be-ferritin adduct containing 270 picomoles of Be, or ferritin alone, mean±SEM
Procedure: FIG. 1. illustrates an exemplary histogram of (a) TUNEL (assay for DNA strand break) positive nuclear staining of CBD BAL macrophages after exposure to 100 μM BeSO4 and (b) nuclear fragmentation in CBD BAL macrophages exposed to Be-ferritin containing 270 picomoles of Be. (c) The percent (mean %±SEM) of CBD BAL cells (n=8) with TUNEL positive nuclei (black) or with fragmented nuclei (open) after exposure to 100 μM BeSO4. *p<0.05 versus the corresponding unstimulated control.
Cell Cultivation: Bronchoalveolar lavage (BAL) was performed as previously described. […] BAL macrophages and T cells were separated by an adherence method known in the art.

[2] = system: BAL cells (Be-specific BAL T cells); assay: Beryllium lymphocyte proliferation test (BeLPT), BAL cells; settings: for Peak CBD BAL cell BeLPT stimulation index, median (minimum, maximum): CBD BAL cells, n = 4, 10^-10 M Be-ferritin, 10^-4 M BeSO4, 10^-4 M Al2(SO4)3, ferritin
[3] = system: BAL lymphocytes from CBD and BeS subjects; assay: Apoptosis of BAL lymphocytes

| Compound | BAL macrophages with apoptotic fragmented nuclei [1] | Peak CBD BAL cell BeLPT stimulation index, median (minimum, maximum) [2] | Induction of apoptosis of BAL lymphocytes [3] | BAL BeLPT SI, median (minimum, maximum) ([2]; BeS subjects, peak SI after BeSO4 stimulation) |
| --- | --- | --- | --- | --- |
| ferritin | < 3% | 1.1 (0.8, 1.3) |  |  |
| O=S(=O)([O-])[O-].[Be+2] [BeSO4, Beryllium sulfate] | 50%±6% | 18.5 (3.7, 124)** | did not induce | 1.9 (1.2, 46) |
